The values that follow come from patent US7531573B2 (priority 1994, dated 2009).

Where two headings read alike, the source gives them in different places.

In series [1] the test system is NIH 3T3 mouse fibroblast cells. The series can be described thus: Mitogen-induced cell proliferation. The class given is cell-based. The settings on record: for inhibition at 10 µM: NIH3T3, read-out: Mitogen-induced cell proliferation % Inhibition; for IC50: NIH3T3, read-out: Mitogen-induced cell proliferation IC50. From the text: Other cell lines, e.g., cancer cells, endothelial cells and fibroblasts, as well as many others, may be used in the cell proliferation assay. Selection of a particular cell line will depend in part on the desired application, and is well within the capabilities of an ordinarily skilled artisan.

The target of series [2] is Gardos channel of erythrocytes (Homo sapiens, UniProt O15554). As to the kind of experiment: cell-based. The settings on record: for inhibition at 10 µM: read-out: Gardos Channel % Inhibition.
[3] abbreviates: erythrocytes, read-out: Gardos Channel IC50.

Gardos channel of erythrocytes, sequence (O15554 whole entry): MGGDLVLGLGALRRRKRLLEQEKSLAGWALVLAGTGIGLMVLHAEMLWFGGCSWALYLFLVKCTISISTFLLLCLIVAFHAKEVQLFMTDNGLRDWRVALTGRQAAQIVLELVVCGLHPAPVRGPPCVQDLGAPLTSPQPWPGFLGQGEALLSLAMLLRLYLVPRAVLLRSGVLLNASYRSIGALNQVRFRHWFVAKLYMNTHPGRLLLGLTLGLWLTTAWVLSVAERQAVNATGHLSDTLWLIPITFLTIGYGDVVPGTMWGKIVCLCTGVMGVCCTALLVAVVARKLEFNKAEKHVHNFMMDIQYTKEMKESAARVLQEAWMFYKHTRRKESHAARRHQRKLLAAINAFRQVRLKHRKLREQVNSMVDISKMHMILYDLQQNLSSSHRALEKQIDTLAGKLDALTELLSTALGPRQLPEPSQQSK

The compound `O=CCC(c1ccccc1)(c1ccccc1)c1ccccc1Cl` [Compound 79, 3-(2′-chlorophenyl)-3,3-diphenylpropanal] yielded a melting point of 92 to 93 °C. Also, in series [1], the inhibition at 10 µM worked out at 99% and the IC50 stood at 2700 nM. Besides, in series [2] (setting [3]), the IC50 is 83 nM. Further, the inhibition at 10 µM in series [2] is 96%.

Take `Oc1ccc(C(O)(c2ccccc2)c2ccccc2Cl)cc1` (stereo not drawn) [Compound 84, α-(2-chlorophenyl)-α-(4-hydroxyphenyl)benzyl alcohol]: the melting point is 56.5 to 60 °C. Further, in series [1], the inhibition at 10 µM amounted to 99% and the IC50 was 1000 nM. Further, in series [2], the IC50 was 1270 nM and the inhibition at 10 µM was 95.3%.

The compound `O=CC(c1ccccc1)(c1ccccc1)c1ccccc1Cl` [Compound 15, 2-chlorophenyl-diphenylacetaldehyde] showed a melting point of 126 to 129 °C. Further, in series [1], the inhibition at 10 µM was 88.6% and the IC50 came to 2600 nM. In addition, the IC50 in series [2] (setting [3]) was found to be 96.8 nM. In addition, the inhibition at 10 µM in series [2] was determined as 100%.

Consider `O=C(O)CC(c1ccccc1)(c1ccccc1)c1ccccc1Cl` [Compound 36, 3-(2-chlorophenyl)-3,3-diphenylpropionic acid], for which the melting point lay in the range of 180 to 182 °C. In series [1], the inhibition at 10 µM is 92% and the IC50 turned out to be 600 nM. In series [2] (setting [3]), the IC50 stood at 3110 nM. Further, the inhibition at 10 µM in series [2] worked out at 78.6%.

Take `N#CC(c1ccccc1)(c1ccccc1)C1CCCCC1` [Compound 89, cyclohexyl-diphenylacetonitrile]: the melting point lay in the range of 117.5 to 119 °C. Besides, in series [1], the inhibition at 10 µM worked out at 98% and the IC50 came to 900 nM. Moreover, in series [2] (setting [3]), the IC50 came to 6130 nM. The inhibition at 10 µM in series [2] came to 70.2%.

`OC(c1ccccc1)(c1ccccc1)c1cccc2ccccc12` [Compound 61]: in series [1], the inhibition at 10 µM turned out to be 99% and the IC50 was 1600 nM. Moreover, in series [2], the IC50 came out at 2370 nM and the inhibition at 10 µM amounted to 85%.

Consider `c1ccc(C(c2ccccc2)(c2ccccc2)[n+]2ccccc2)cc1` [Compound 7], for which the inhibition at 10 µM in series [1] was determined as 6.6%; in series [2] it was 98.2%. Also, the IC50 in series [2] (setting [3]) amounted to 410 nM.

Take `CCOC(=O)C(c1ccccc1)(c1ccccc1)N1CCCCC1` [Compound 87]: the inhibition at 10 µM in series [1] came out at 96%; in series [2] it was 99%. The IC50 in series [1] came to 2200 nM; in series [2] (setting [3]) it was 68 nM.

Take `Oc1ccccc1C(O)(c1ccccc1)c1ccccc1` [Compound 42]: the inhibition at 10 µM in series [1] and in series [2] was 99% in each case. Moreover, the IC50 in series [1] stood at 3300 nM; in series [2] it was 615 nM.

For the compound `N#CC(c1ccccc1)(c1ccccc1)c1ccc([N+](=O)[O-])cc1` [Compound 52], the inhibition at 10 µM in series [1] came to 93%; in series [2] it was 94%. Moreover, the IC50 was 1700 nM in series [1] and 255 nM in series [2] (setting [3]).

Turning to `NC(c1ccccc1)(c1ccccc1)c1ccccc1` [Compound 5], in series [1], the inhibition at 10 µM was 66% and the IC50 was 1280 nM. In series [2], the IC50 came out at 1650 nM and the inhibition at 10 µM was 86%.

Consider `NCCC(c1ccc(Cl)cc1)(c1ccc(Cl)cc1)c1ccc(Cl)cc1` [Compound 41], for which the values for the inhibition at 10 µM in series [1] and in series [2] were 99% and 97%, respectively. In addition, the IC50 was determined as 1400 nM in series [1] and 2070 nM in series [2] (setting [3]).

Take `OC(c1ccccc1)(c1ccccc1)c1ccccc1F` [Compound 20]: the inhibition at 10 µM in series [1] amounted to 39%; in series [2], 98.1%. The IC50 in series [2] turned out to be 795 nM.

As to `OC(c1ccccc1)(c1ccccc1)c1cccnc1` [Compound 63], the inhibition at 10 µM in series [1] was found to be 37%; in series [2], 69%. In series [2], this compound came in with an IC50 of 1020 nM.

Regarding `O=C(O)CNC(c1ccccc1)(c1ccccc1)c1ccccc1` [Compound 25], the inhibition at 10 µM came to 70% in series [1] and 34.4% in series [2].

`N#CC(c1ccccc1)(c1ccccc1)c1ccccc1F` [Compound 32, (2-fluorophenyl)-diphenylacetonitrile] gave a melting point of 144 to 145 °C. For the same compound, in series [1], the inhibition at 10 µM came to 54%. Moreover, in series [2], the IC50 stood at 68 nM and the inhibition at 10 µM came out at 95.7%.

On to `SC(c1ccccc1)(c1ccccc1)c1ccccc1` [Compound 11], for which the inhibition at 10 µM worked out at 52% in series [1] and 99.2% in series [2]. Besides, the IC50 in series [1] amounted to 2310 nM; in series [2] (setting [3]), 2160 nM.

With `N#CCC(c1ccc(Cl)cc1)(c1ccc(Cl)cc1)c1ccc(Cl)cc1` [Compound 26], in series [1], the inhibition at 10 µM was 99% and the IC50 turned out to be 1300 nM. The inhibition at 10 µM in series [2] turned out to be 10%.

With `OC(c1ccccc1)(c1ccccc1)c1ccc(C(F)(F)F)cc1` [Compound 68], in series [1], the inhibition at 10 µM is 98% and the IC50 was 3100 nM. For the same compound, in series [2], the IC50 was determined as 236 nM and the inhibition at 10 µM amounted to 97.5%.

As for `COc1ccc(C(c2ccccc2)c2ccccc2Cl)cc1` (stereo not shown) [Compound 83], the values for the inhibition at 10 µM in series [1] and in series [2] were 80% and 96.7%, respectively. Also, the IC50 in series [1] is 6400 nM; in series [2] (setting [3]), 918 nM.

For `Fc1ccccc1C(c1ccccc1)c1ccccc1` [Compound 27], the inhibition at 10 µM in series [1] is 99%; in series [2], 100%. The values for the IC50 in series [1] and in series [2] (setting [3]) were 3000 nM and 449 nM, respectively.

On to `CCOC(=O)CNC(c1ccccc1)(c1ccccc1)c1ccccc1` [Compound 57], for which the inhibition at 10 µM in series [1] stood at 21%; in series [2], 89%. The IC50 in series [2] (setting [3]) came out at 1510 nM.

On to `COC(c1ccccc1)(c1ccccc1)c1ccccc1` [Compound 51], for which the inhibition at 10 µM was 37% in series [1] and 100% in series [2]. Moreover, in series [2] (setting [3]), the IC50 worked out at 551 nM.

With `N#CC(c1ccccc1)(c1ccccc1)c1ccccc1` [Compound 13], the inhibition at 10 µM in series [1] was determined as 87%; in series [2], 72.4%. The values for the IC50 in series [1] and in series [2] (setting [3]) were 920 nM and 133 nM, respectively.

As for `CCOC(c1ccccc1)(c1ccccc1)c1ccccc1` [Compound 46], the values for the inhibition at 10 µM in series [1] and in series [2] were 99% and 99.5%, respectively. Besides, the IC50 in series [1] amounted to 2200 nM; in series [2] (setting [3]), 76 nM.

For `C1=CC(=P(c2ccccc2)(c2ccccc2)c2ccccc2)C=C1` [Compound 10], the results for the inhibition at 10 µM in series [1] and in series [2] were 25.5% and 89.7%, respectively. The IC50 in series [1] turned out to be 4800 nM; in series [2] (setting [3]), 957 nM.

In turn, `O=CC(c1ccccc1)(c1ccccc1)c1ccccc1` [Compound 16, triphenylacetaldehyde] returned a melting point of 91 to 96 °C. Moreover, in series [1], the inhibition at 10 µM amounted to 99.4% and the IC50 was 400 to 2000 nM. In addition, the IC50 in series [2] (setting [3]) was determined as 87 nM. For the same compound, the inhibition at 10 µM in series [2] came to 98%.

For `OC(c1ccccc1)(c1ccc(Br)cc1)c1ccc(Br)cc1` [Compound 50], in series [1], the inhibition at 10 µM worked out at 99% and the IC50 came to 500 nM. Also, in series [2], the IC50 was found to be 288 nM and the inhibition at 10 µM is 100%.

Turning to `COC(=O)CC(c1ccccc1)(c1ccccc1)c1ccccc1` [Compound 53], the results for the inhibition at 10 µM in series [1] and in series [2] were 74% and 98%, respectively. In addition, the IC50 in series [2] (setting [3]) amounted to 101 nM.

For the compound `COc1ccc(C(O)(c2ccccc2)c2ccccc2)cc1` [Compound 60], the inhibition at 10 µM in series [1] was 31%. In series [2], the IC50 worked out at 304 nM and the inhibition at 10 µM was 98%.

As to `C#C[Si](c1ccccc1)(c1ccccc1)c1ccccc1` [Compound 44], the inhibition at 10 µM in series [1] stood at 82%; in series [2], 79.4%. In series [2], the IC50 is 388 nM.

In turn, `NC(=O)CC(c1ccc(Cl)cc1)(c1ccc(Cl)cc1)c1ccc(Cl)cc1` [Compound 30, tris(4-chlorophenyl)propionamide] returned a melting point of 158 to 160 °C. In addition, in series [1], the inhibition at 10 µM was found to be 99% and the IC50 was determined as 900 nM. In series [2], the IC50 amounted to 272 nM and the inhibition at 10 µM came to 97%.

Consider `CON(C)C(=O)CC(c1ccccc1)(c1ccccc1)c1ccccc1` [Compound 56], for which the results for the inhibition at 10 µM in series [1] and in series [2] were 99% and 91%, respectively. Moreover, the IC50 in series [1] is 3200 nM; in series [2] (setting [3]), 275 nM.

In the case of `NC(=O)CCC(c1ccccc1)(c1ccccc1)c1ccccc1` [Compound 78], the inhibition at 10 µM in series [1] came out at 72%; in series [2], 95%. The IC50 in series [2] (setting [3]) stood at 220 nM.

Turning to `O=C(O)C(c1ccccc1)(c1ccccc1)c1ccccc1Cl` [Compound 80], the inhibition at 10 µM amounted to 62% in series [1] and 97% in series [2]. In addition, in series [2] (setting [3]), the IC50 was 206 nM.

On to `ClC(c1ccccc1)(c1ccccc1)c1ccccc1` [Compound 2], for which the inhibition at 10 µM in series [1] worked out at 64.8%. In series [2], the IC50 came to 459 nM and the inhibition at 10 µM was determined as 99.4%.

In the case of `N#CC(c1ccccc1)(c1ccccc1)c1ccccc1Cl` [Compound 14, (2-chlorophenyl)-diphenylacetonitrile], in series [1], the inhibition at 10 µM came to 95.8% and the IC50 was 2200 nM. In series [2], the IC50 is 48 nM and the inhibition at 10 µM worked out at 98.8%.

On to `OCC(c1ccccc1)(c1ccccc1)c1ccccc1` [Compound 35], for which the inhibition at 10 µM in series [1] was 38%. Further, in series [2], the IC50 was found to be 430 nM and the inhibition at 10 µM stood at 95.8%.

Consider `Brc1ccc(C(c2ccccc2)c2ccc(Br)cc2)cc1` [Compound 66], for which the inhibition at 10 µM in series [1] came out at 73%. In addition, in series [2], the IC50 was 384 nM and the inhibition at 10 µM amounted to 67.2%.

On to `O=C(O)C(Cc1ccc2ccccc2c1)C(c1ccccc1)(c1ccccc1)c1ccccc1` (stereo not shown) [Compound 28], for which the inhibition at 10 µM in series [1] was found to be 99%; in series [2] it was 98%. For the same compound, the IC50 in series [1] was found to be 700 nM; in series [2] (setting [3]), 5220 nM.

What is called melting point is the temperature, or range, at which the solid turns liquid.
